Literature values as cited in US20100240626A1, “ANTIEMETIC-ORAL CONTRACEPTIVE COMBINATION” (Lupin Limited, priority 2007, published 2010).

Conditions: 0.75 mg of levonorgestrel administered

patients experiencing nausea: about 23.1% | patients experiencing vomiting: 5.6%
SMILES: C#C[C@]1(O)CC[C@H]2[C@@H]3CCC4=CC(=O)CC[C@@H]4[C@H]3CC[C@@]21CC [levonorgestrel]
